Test results from the CheMixHub viscosity set.
± gives the uncertainty stated by the source.

Test: xn = mol fraction of the nth substance listed

## CCCCCCCCN(CCCCCCCC)CCCCCCCC + CCCCCCCCO
298 K, 101.3 kPa, x1 = 0.00811
  viscosity: 7.341 ± 0.19 mPa·s

## COC(=O)c1ccccc1 + CN(C)C=O
298.15 K, 101.3 kPa, x2 = 0.1213
  viscosity: 1.74 ± 0.022 mPa·s
298.15 K, 101.3 kPa, x2 = 0.1914
  viscosity: 1.644 ± 0.021 mPa·s
298.15 K, 101.3 kPa, x2 = 0.2976
  viscosity: 1.507 ± 0.019 mPa·s
298.15 K, 101.3 kPa, x2 = 0.3961
  viscosity: 1.388 ± 0.017 mPa·s
298.15 K, 101.3 kPa, x2 = 0.5284
  viscosity: 1.239 ± 0.016 mPa·s
298.15 K, 101.3 kPa, x2 = 0.6218
  viscosity: 1.141 ± 0.015 mPa·s
298.15 K, 101.3 kPa, x2 = 0.7468
  viscosity: 1.02 ± 0.013 mPa·s
298.15 K, 101.3 kPa, x2 = 0.8028
  viscosity: 0.969 ± 0.013 mPa·s
298.15 K, 101.3 kPa, x2 = 0.9311
  viscosity: 0.86 ± 0.012 mPa·s
303.15 K, 101.3 kPa, x2 = 0.1213
  viscosity: 1.622 ± 0.02 mPa·s
303.15 K, 101.3 kPa, x2 = 0.1914
  viscosity: 1.536 ± 0.019 mPa·s
303.15 K, 101.3 kPa, x2 = 0.2976
  viscosity: 1.413 ± 0.018 mPa·s
303.15 K, 101.3 kPa, x2 = 0.3961
  viscosity: 1.306 ± 0.016 mPa·s
303.15 K, 101.3 kPa, x2 = 0.5284
  viscosity: 1.169 ± 0.015 mPa·s
303.15 K, 101.3 kPa, x2 = 0.6218
  viscosity: 1.078 ± 0.014 mPa·s
303.15 K, 101.3 kPa, x2 = 0.7468
  viscosity: 0.963 ± 0.013 mPa·s
303.15 K, 101.3 kPa, x2 = 0.8028
  viscosity: 0.915 ± 0.012 mPa·s
303.15 K, 101.3 kPa, x2 = 0.9311
  viscosity: 0.81 ± 0.011 mPa·s
308.15 K, 101.3 kPa, x2 = 0.1213
  viscosity: 1.524 ± 0.019 mPa·s
308.15 K, 101.3 kPa, x2 = 0.1914
  viscosity: 1.447 ± 0.018 mPa·s
308.15 K, 101.3 kPa, x2 = 0.2976
  viscosity: 1.334 ± 0.017 mPa·s
308.15 K, 101.3 kPa, x2 = 0.3961
  viscosity: 1.235 ± 0.016 mPa·s
308.15 K, 101.3 kPa, x2 = 0.5284
  viscosity: 1.107 ± 0.014 mPa·s
308.15 K, 101.3 kPa, x2 = 0.6218
  viscosity: 1.022 ± 0.013 mPa·s
308.15 K, 101.3 kPa, x2 = 0.7468
  viscosity: 0.913 ± 0.012 mPa·s
308.15 K, 101.3 kPa, x2 = 0.8028
  viscosity: 0.867 ± 0.012 mPa·s
308.15 K, 101.3 kPa, x2 = 0.9311
  viscosity: 0.764 ± 0.011 mPa·s
313.15 K, 101.3 kPa, x2 = 0.1213
  viscosity: 1.305 ± 0.017 mPa·s
313.15 K, 101.3 kPa, x2 = 0.1914
  viscosity: 1.252 ± 0.016 mPa·s
313.15 K, 101.3 kPa, x2 = 0.2976
  viscosity: 1.173 ± 0.015 mPa·s
313.15 K, 101.3 kPa, x2 = 0.3961
  viscosity: 1.1 ± 0.014 mPa·s
313.15 K, 101.3 kPa, x2 = 0.5284
  viscosity: 1.003 ± 0.013 mPa·s
313.15 K, 101.3 kPa, x2 = 0.6218
  viscosity: 0.936 ± 0.013 mPa·s
313.15 K, 101.3 kPa, x2 = 0.7468
  viscosity: 0.848 ± 0.012 mPa·s
313.15 K, 101.3 kPa, x2 = 0.8028
  viscosity: 0.809 ± 0.011 mPa·s
313.15 K, 101.3 kPa, x2 = 0.9311
  viscosity: 0.721 ± 0.011 mPa·s

## [Cl-].[Cl-].[Cl-].[Cl-].[Ti+4] + [Cl-].[Cl-].[Cl-].[Cl-].[Sn+4]
293.15 K, 101 kPa, x2 = 0.2
  viscosity: 0.847 ± 0.015 mPa·s
293.15 K, 101 kPa, x2 = 0.4
  viscosity: 0.87 ± 0.015 mPa·s
293.15 K, 101 kPa, x2 = 0.6
  viscosity: 0.895 ± 0.015 mPa·s
293.15 K, 101 kPa, x2 = 0.8
  viscosity: 0.922 ± 0.016 mPa·s
313.15 K, 101 kPa, x2 = 0.2
  viscosity: 0.702 ± 0.012 mPa·s
313.15 K, 101 kPa, x2 = 0.4
  viscosity: 0.703 ± 0.012 mPa·s
313.15 K, 101 kPa, x2 = 0.6
  viscosity: 0.705 ± 0.012 mPa·s
313.15 K, 101 kPa, x2 = 0.8
  viscosity: 0.709 ± 0.012 mPa·s

## CCCCOCCO + CCCCCC
303.15 K, 101 kPa, x1 = 0.0327
  viscosity: 0.292 ± 0.005 mPa·s
303.15 K, 101 kPa, x1 = 0.1014
  viscosity: 0.354 ± 0.005 mPa·s
303.15 K, 101 kPa, x1 = 0.1974
  viscosity: 0.456 ± 0.006 mPa·s
303.15 K, 101 kPa, x1 = 0.2974
  viscosity: 0.587 ± 0.007 mPa·s
303.15 K, 101 kPa, x1 = 0.395
  viscosity: 0.741 ± 0.008 mPa·s
303.15 K, 101 kPa, x1 = 0.4968
  viscosity: 0.93 ± 0.01 mPa·s
303.15 K, 101 kPa, x1 = 0.5957
  viscosity: 1.148 ± 0.011 mPa·s
303.15 K, 101 kPa, x1 = 0.7323
  viscosity: 1.507 ± 0.014 mPa·s
303.15 K, 101 kPa, x1 = 0.8316
  viscosity: 1.793 ± 0.016 mPa·s
303.15 K, 101 kPa, x1 = 0.8992
  viscosity: 2.025 ± 0.018 mPa·s
303.15 K, 101 kPa, x1 = 0.9658
  viscosity: 2.271 ± 0.02 mPa·s
313.15 K, 101 kPa, x1 = 0.0327
  viscosity: 0.258 ± 0.004 mPa·s
313.15 K, 101 kPa, x1 = 0.1014
  viscosity: 0.31 ± 0.005 mPa·s
313.15 K, 101 kPa, x1 = 0.1974
  viscosity: 0.396 ± 0.006 mPa·s
313.15 K, 101 kPa, x1 = 0.2974
  viscosity: 0.506 ± 0.006 mPa·s
313.15 K, 101 kPa, x1 = 0.395
  viscosity: 0.634 ± 0.007 mPa·s
313.15 K, 101 kPa, x1 = 0.4968
  viscosity: 0.787 ± 0.009 mPa·s
313.15 K, 101 kPa, x1 = 0.5957
  viscosity: 0.956 ± 0.01 mPa·s
313.15 K, 101 kPa, x1 = 0.7323
  viscosity: 1.23 ± 0.012 mPa·s
313.15 K, 101 kPa, x1 = 0.8316
  viscosity: 1.458 ± 0.014 mPa·s
313.15 K, 101 kPa, x1 = 0.8992
  viscosity: 1.634 ± 0.015 mPa·s
313.15 K, 101 kPa, x1 = 0.9658
  viscosity: 1.79 ± 0.017 mPa·s

## CCCCOCCO + Cc1cccc(C)c1
298.15 K, 101 kPa, x1 = 0.056
  viscosity: 0.625 ± 0.011 mPa·s
298.15 K, 101 kPa, x1 = 0.152
  viscosity: 0.711 ± 0.013 mPa·s
298.15 K, 101 kPa, x1 = 0.2496
  viscosity: 0.813 ± 0.014 mPa·s
298.15 K, 101 kPa, x1 = 0.3506
  viscosity: 0.941 ± 0.016 mPa·s
298.15 K, 101 kPa, x1 = 0.4512
  viscosity: 1.095 ± 0.018 mPa·s
298.15 K, 101 kPa, x1 = 0.5022
  viscosity: 1.185 ± 0.019 mPa·s
298.15 K, 101 kPa, x1 = 0.5529
  viscosity: 1.284 ± 0.021 mPa·s
298.15 K, 101 kPa, x1 = 0.6487
  viscosity: 1.501 ± 0.024 mPa·s
298.15 K, 101 kPa, x1 = 0.7505
  viscosity: 1.781 ± 0.028 mPa·s
298.15 K, 101 kPa, x1 = 0.8511
  viscosity: 2.122 ± 0.033 mPa·s
298.15 K, 101 kPa, x1 = 0.9549
  viscosity: 2.56 ± 0.039 mPa·s
308.15 K, 101 kPa, x1 = 0.056
  viscosity: 0.534 ± 0.01 mPa·s
308.15 K, 101 kPa, x1 = 0.152
  viscosity: 0.602 ± 0.011 mPa·s
308.15 K, 101 kPa, x1 = 0.2496
  viscosity: 0.686 ± 0.012 mPa·s
308.15 K, 101 kPa, x1 = 0.3506
  viscosity: 0.786 ± 0.014 mPa·s
308.15 K, 101 kPa, x1 = 0.4512
  viscosity: 0.908 ± 0.016 mPa·s
308.15 K, 101 kPa, x1 = 0.5022
  viscosity: 0.979 ± 0.017 mPa·s
308.15 K, 101 kPa, x1 = 0.5529
  viscosity: 1.056 ± 0.018 mPa·s
308.15 K, 101 kPa, x1 = 0.6487
  viscosity: 1.225 ± 0.02 mPa·s
308.15 K, 101 kPa, x1 = 0.7505
  viscosity: 1.442 ± 0.023 mPa·s
308.15 K, 101 kPa, x1 = 0.8511
  viscosity: 1.704 ± 0.027 mPa·s
308.15 K, 101 kPa, x1 = 0.9549
  viscosity: 2.037 ± 0.032 mPa·s
